# Laboratory results from patent US12486489B2, “Culture medium for testing drug resistance of H.pylori as well as preparation method and use thereof” (priority 2022, dated 2025).
# Legend:
# H. pylori [1] = conditions: bacterial count 1×10^6 CFU/mL; cited from earlier work
# [2] = system: clinical H. pylori strain; experiment: Drug resistance testing of clinical specimens on characteristic culture medium (discoloration after 36 hours); assay type: cell-based, Helicobacter pylori
# Protocol: (§1) The characteristic culture media (A, B, C, D, E) are cultivated at a constant temperature of 37° C. for 36 hours in a three gas incubator. The characteristic culture media are removed and placed in a natural environment for 30 minutes to observe whether there are discolorations at the point of the culture medium where the specimen is dropped in. […] Another 100 μL of the specimen is taken and coated on Columbia solid culture medium and cultivated in a three gas incubator at a constant temperature of 37° C. for 3 days to 5 days. The number of colonies on the plate is counted to determine the initial inoculation amount. The micro dilution method is adopted to test the MIC of clinical specimen H. pylori, the test is meaningful only when there is no bacterial growth in the negative control well without bacteria and there is bacterial growth in the positive well with bacteria but without antibiotics.
# (1) Transfer liquid preparation: after sterilization and cooling, BHI culture medium is added with 10% calf serum, followed by 30% glycerol to prepare H. pylori preservation solution. On this basis, 1% H. pylori selective additive is added to prepare the transfer liquid. 1 mL of transfer solution is taken into a sterile EP tube, and 6-8 sterilized small steel balls are poured into the EP tube for the subsequent use.
# (3) Specimen acquisition: a biopsy tissue group is obtained from the gastric antrum and a small curvature side of the gastric body through a gastroscopy biopsy passage and placed into an EP tube (strictly sterile operation). The biopsy tissue is placed on the ice surface and transferred as soon as possible (within 2 hours) to complete the subsequent steps.
# (4) Preparation of bacterial solution containing tissue: the EP tube containing tissue is placed in a homogenizer at 300 hz and crushed for 5 minutes, transferred to another EP, centrifuged at 12000 rpm for 2 minutes, the supernatant is discarded, BHI is resuspended to 200 μL, and a bacterial suspension is prepared for the subsequent use.
# (5) Inoculation of bacterial solution: 10 μL of bacterial solution is taken and added dropwise to the characteristic culture medium (5 pieces in total). The characteristic culture medium is removed after cultivating in a three gas incubator at 37° C. for 36 hours, and the results are determined after leaving for 30 minutes; another 100 μL is taken and coated onto Colombian culture medium for the traditional bacterial culture.
# H. pylori [3] = experiment: Drug resistance testing of laboratory strains on characteristic culture medium (discoloration after 36 hours); assay type: cell-based, Helicobacter pylori
# Protocol: as §1, with “antibiotics. […] The results are recorded and whether the micro dilution method and characteristic culture medium are consistent with each other in evaluating the drug resistance of clinical H. pylori strains is compared. […]” for “antibiotics.”
# (2) Inoculation of bacterial solution: 10 μL bacterial solution is taken and added dropwise onto a characteristic culture medium with 5 pieces (ABCDE) in total.
# (3) Culture: all plates are moved to a three gas incubator and cultivated at 37° C. for 36 hours. After being taken out and placed in a natural environment for 30 minutes, whether the bacteria have resistance is determined based on the discoloration of the characteristic culture medium.
# H. pylori [4] = experiment: Verification of resistance breakpoint: growth of laboratory strains on Columbia solid culture medium with added antibiotics, 72 hours; assay type: cell-based, Helicobacter pylori; conditions: for growth of bacterial: antibiotic 0.0313 μg/mL
# Protocol: The plates are cooled and inverted for approximately 10 mL/piece, marked properly for the subsequent use.
# (2) Preparation of bacterial solution: H. pylori grown in logarithmic phase on a solid plate is taken to prepare a bacterial suspension by using BHI. The concentration OD600 is adjusted to 0.3 (1×10^8 CFU/mL), diluted 10 times for the subsequent use.
# (3) Inoculation of bacterial solution: 10 μL of bacterial solution is taken and added to Columbia culture medium and the results are determined after cultivating for 72 hours.
# (4) Result determination: the minimum drug concentration for no growth of bacteria on the plate is the minimum inhibitory concentration of the bacteria against the drug.
compound,measurement,setting,value
"CC1(C)S[C@@H]2[C@H](NC(=O)[C@H](N)c3ccc(O)cc3)C(=O)N2[C@H]1C(=O)O [Amoxicillin, amoxicillin]",resistance breakpoints of H. pylori according to CLSI guidelines,H. pylori [1],0.5 µg/mL
same,drug resistance determined on characteristic culture medium,[2]; clinical H. pylori strain FY-31,sensitive
same,drug resistance determined on characteristic culture medium,[2]; clinical H. pylori strain FY-43,sensitive
same,drug resistance determined on characteristic culture medium,[2]; clinical H. pylori strain FY-47,sensitive
same,drug resistance determined on characteristic culture medium,[2]; clinical H. pylori strain FY-52,sensitive
same,drug resistance determined by discoloration of characteristic culture medium,"H. pylori [3]; strain 159, 1×10^6 CFU/mL",sensitive
same,drug resistance determined by discoloration of characteristic culture medium,"H. pylori [3]; strain 286, 1×10^6 CFU/mL",have developed resistance
same,drug resistance determined by discoloration of characteristic culture medium,"H. pylori [3]; strain 287, 1×10^6 CFU/mL",have developed resistance
same,drug resistance determined by discoloration of characteristic culture medium,"H. pylori [3]; strain 289, 1×10^6 CFU/mL",have developed resistance
same,drug resistance determined by discoloration of characteristic culture medium,"H. pylori [3]; strain G27, 1×10^6 CFU/mL",does not develop resistance
same,growth of sensitive strains,"H. pylori [4]; levofloxacin 0.5, clarithromycin 0.5, metronidazole 4, amoxicillin 0.5 μg/mL",no sensitive strain grows
same,growth of bacterial,H. pylori [4]; strain 159,+
same,growth of bacterial,H. pylori [4]; strain 161,+
same,growth of bacterial,H. pylori [4]; strain 162,+
same,growth of bacterial,H. pylori [4]; strain 163,+
same,growth of bacterial,H. pylori [4]; strain 286,−
same,growth of bacterial,H. pylori [4]; strain 287,+
same,growth of bacterial,H. pylori [4]; strain 289,+
same,growth of bacterial,H. pylori [4]; strain 290,+
same,growth of bacterial,H. pylori [4]; strain 26695,+
same,growth of bacterial,H. pylori [4]; strain G27,+
